# Values of other authors in patent EP3231454B1, “BONE CEMENT COMPRISING MICROENCAPSULATED ANTIMICROBIAL” (UNIVERSIDAD PONTIFICIA COMILLAS, priority 2016, dated 2017).
# Settings: addition of 1 g of vancomycin to bone cement
smiles,measurement,value
CN[C@H](CC(C)C)C(=O)N[C@H]1C(=O)N[C@@H](CC(N)=O)C(=O)N[C@H]2C(=O)N[C@H]3C(=O)N[C@H](C(=O)N[C@H](C(=O)O)c4cc(O)cc(O)c4-c4cc3ccc4O)[C@H](O)c3ccc(c(Cl)c3)Oc3cc2cc(c3O[C@@H]2O[C@H](CO)[C@@H](O)[C@H](O)[C@H]2O[C@H]2C[C@](C)(N)[C@H](O)[C@H](C)O2)Oc2ccc(cc2Cl)[C@H]1O [vancomycin],reduction in bending resistance,more than 20%
